# Reference: US8431593B2, “Heteroaryl amide derivatives” (H. Lundbeck A/S, priority 2006, dated 2013)
# Biological target: T1, P2X7 receptor (Homo sapiens, UniProt Q99572)
# T1 construct: host or cells: SH-SY5Y
# T1 sequence (Q99572 1-595): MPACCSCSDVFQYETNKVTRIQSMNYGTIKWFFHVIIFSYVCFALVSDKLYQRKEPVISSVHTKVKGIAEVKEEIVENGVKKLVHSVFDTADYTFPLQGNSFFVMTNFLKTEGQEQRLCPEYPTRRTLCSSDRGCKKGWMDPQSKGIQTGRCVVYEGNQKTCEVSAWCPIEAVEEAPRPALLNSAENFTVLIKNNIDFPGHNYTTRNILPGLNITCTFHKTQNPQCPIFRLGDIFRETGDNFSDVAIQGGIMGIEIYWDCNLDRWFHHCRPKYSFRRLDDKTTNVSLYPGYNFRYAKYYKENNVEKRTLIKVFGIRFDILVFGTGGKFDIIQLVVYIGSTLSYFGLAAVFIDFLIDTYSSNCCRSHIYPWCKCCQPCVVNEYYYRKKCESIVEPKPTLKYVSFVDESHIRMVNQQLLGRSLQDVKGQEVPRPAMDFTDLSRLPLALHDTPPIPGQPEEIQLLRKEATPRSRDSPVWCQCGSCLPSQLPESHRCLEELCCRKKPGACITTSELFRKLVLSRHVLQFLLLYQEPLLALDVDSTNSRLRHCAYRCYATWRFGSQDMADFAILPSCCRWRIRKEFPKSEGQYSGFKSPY
# Assay: P2X7 calcium mobilization assay, high throughput, antagonist activity (Example 4A)
# Type: cell-based
# Conditions: not given
# Method in brief: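 Cells plated 100,000/well the day before; after 1 h dye loading and one rinse, cells were preincubated 1 h at room temperature with test compound. Calcium mobilization then read on FLIPR^TETRA; maximum RFU corrected by subtracting mean no-agonist response and referenced to mean agonist-control maximum.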
row,SMILES,IC50
1,"CCC(O)CNC(=O)Cc1cn2c(C(=O)NCC34CC5CC(CC(C5)C3)C4)cccc2n1 (centres unmarked) [Compound 30, N-(adamantan-1-ylmethyl)-2-{2-[(2-hydroxy-butyl)amino]-2-oxoethyl}imi-dazo[1,2-a]pyridine-5-carboxamide]",< 2000 nM

# Same assay, conditions: 50% decrease in the fluorescence response of cells exposed to 80 μM 2′(3′)-O-(4-benzoyl-benzoyl)adenosine 5′-triphosphate; Example 4A; read-out: IC50
row,SMILES,IC50
1,"CC(C)CN(C)C(=O)c1cn2c(C(=O)NC[C@@H]3CC[C@H]4C[C@@H]3C4(C)C)cccc2n1 [Compound 467, 5-N-{[(1S,2R,5S)-6,6-dimethylbicyclo[3.1.1]hept-2-yl]methyl}-2-N-isobutyl-2-N-methylimidazo[1,2-a]pyridine-2,5-dicarboxamide]",< 2000 nM
2,"CC1CNCCN1C(=O)Cc1cn2c(C(=O)NC[C@@H]3CC[C@@H]4C[C@H]3C4(C)C)cccc2n1 (stereo partly drawn) [Compound 556, N-{[(1R,2R,5R)-6,6-dimethylbicyclo[3.1.1]hept-2-yl]methyl}-2-[2-(2-methylpiperazin-1-yl)-2-oxoethyl]imidazo[1,2-a]pyridine-5-carboxamide]",< 2000 nM
3,"O=C(NCC12CC3CC(CC(C3)C1)C2)c1cccc2nc(C(=O)N3CCNCC3)cn12 [Compound 603, N-(adamantan-1-ylmethyl)-2-(piperazin-1-ylcarbonyl) imidazo[1,2-a]pyridine-5-carboxamide]",< 2000 nM

# Same assay, conditions: 50% decrease in the fluorescence response of cells exposed to 80 μM of 2′(3′)-O-(4-benzoyl-benzoyl)adenosine 5′-triphosphate; Example 4A; read-out: IC50
row,SMILES,IC50
1,"CC(C)CC(CNC(=O)c1cccc2nc(C(=O)N3CC[C@@H](N)C3)cn12)c1cccnc1 (some centres unmarked) [Compound 746, 2-[(3-aminopyrrolidin-1-yl)carbonyl]-N-(4-methyl-2-pyridin-3-ylpentyl) imidazo[1,2-a]pyridine-5-carboxamide]",< 2000 nM
2,"CCOC(=O)C(Cc1cn2c(C(=O)NCC34CC5CC(CC(C5)C3)C4)cccc2n1)C(=O)OC(C)(C)C (centres unmarked) [Compound 728, tert-butyl ethyl ({5-[(adamantan-1-ylmethyl)carbamoyl]imidazo[1,2-a]pyridin-2-yl}methyl)malonate]",< 2000 nM
3,"CC(C)CC(CNC(=O)c1cccc2nc(CSCCN)cn12)c1cccnc1 (centres unmarked) [Compound 744, 2-{[(2-aminoethyl)thio]methyl}-N-(4-methyl-2-pyridin-3-ylpentyl)imidazo [1,2-a]pyridine-5-carboxamide]",< 2000 nM
4,"CC(C)(C)OC(=O)N[C@@H]1CCN(Cc2cn3c(C(=O)NCC(CC4CC4)c4ccccc4)cccc3n2)C1 (stereo in doubt) [Compound 776, tert-butyl [1-({5-[(3-cyclopropyl-2-phenylpropyl)carbamoyl]imidazo[1,2-a]pyridin-2-yl}methyl)pyrrolidin-3-yl]carbamate]",< 2000 nM
5,"O=C(NCC12CC3CC(CC(C3)C1)C2)c1cccc2nc(Cn3nnnc3-c3cccnc3)cn12 [Compound 814, N-(adamantan-1-ylmethyl)-2-[(5-pyridin-3-yl-1H-tetrazol-1-yl)methyl]imidazo [1,2-a]pyridine-5-carboxamide]",< 2000 nM
6,"CN(C)CC(C)(C)CNC(=O)c1cn2c(C(=O)NCC34CC5CC(CC(C5)C3)C4)cccc2n1 [Compound 644, 5-N-(adamantan-1-ylmethyl)-2-N-[3-(dimethylamino)-2,2-dimethylpropyl] imidazo[1,2-a] pyridine-2,5-dicarboxamide]",< 2000 nM

# Same assay, conditions: 50% decrease in the fluorescence response of cells exposed to 80 μM of 2′(3′)-O-(4-benzoyl-benzoyl)adenosine 5′-triphosphate; determined as in Example 4A; read-out: IC50
row,SMILES,IC50
1,"CCOC(=O)Cc1cn2c(C(=O)NCC(CC(C)C)c3ccc(Cl)cc3)cccc2n1 (centres unmarked) [Compound 913, ethyl (5-{[2-(4-chlorophenyl)-4-methylpentyl]carbamoyl}imidazo[1,2-a]pyridin-2-yl) acetate]",< 2000 nM
2,"CCOC(=O)C1(c2cn3c(C(=O)NCC45CC6CC(CC(C6)C4)C5)cccc3n2)CCCCC1 [Compound 849, ethyl 1-{5-[(adamantan-1-ylmethyl)carbamoyl]imidazo[1,2-a]pyridin-2-yl} cyclohexane-carboxylate]",< 2000 nM
3,"O=C(NCC1(c2ccc(C(F)(F)F)cc2)CCCCC1)c1cccc2nc(CC(=O)N3CCSCC3)cn12 [Compound 889, 2-(2-oxo-2-thiomorpholin-4-ylethy)-N-({1-[4-(trifluoromethyl)phenyl]cyclohexyl}methyl) imidazo[1,2-a] pyridine-5-carboxamide]",< 2000 nM
4,"CN(C)C1CCCN(C(=O)Cc2cn3c(C(=O)NCC4(c5ccc(Cl)cc5)CCCCC4)cccc3n2)C1 (centres unmarked) [Compound 894, N-{[1-(4-chlorophenyl)cyclohexyl]methyl}-2-{2-[3-(dimethylamino)piperidin-1-yl]-2-oxoethyl} imidazo[1,2-a] pyridine-5-carboxamide]",< 2000 nM
5,"COc1ccc(C2(CNC(=O)c3cccc4nc(CC(Cc5ccccc5)C(=O)O)cn34)CCCCC2)cc1 (centres unmarked) [Compound 1014, 2-benzyl-3-[5-({[1-(4-methoxyphenyl)cyclohexyl]methyl}carbamoyl)imidazo[1,2-a]pyridin-2-yl]propanoic acid]",< 2000 nM

# Same assay, conditions: SH-SY5Y cells; 50% decrease in fluorescence response to 80 μM BzATP; read-out: IC50
row,SMILES,IC50
1,CS(=O)(=O)C1CCN(C(=O)Cc2cn3c(C(=O)NCC45CC6CC(CC(C6)C4)C5)cccc3n2)CC1 [Compound 43],< 2000 nM
2,"NC(=O)C1CCN(C(=O)c2cn3c(C(=O)NCC45CC6CC(CC(C6)C4)C5)cccc3n2)CC1 [Compound 102, N-(adamantan-1-ylmethyl)-2-[(4-carbamoylpiperidin-1-yl)carbonyl]imidazo[1,2-a]pyridine-5-carboxamide]",< 2000 nM
3,"CCC(=O)NCCc1cn2c(C(=O)NCC34CC5CC(CC(C5)C3)C4)cccc2n1 [Compound 201, N-(adamantan-1-ylmethyl)-2-[2-(propionylamino)eth-yl]imidazo[1,2-a]pyridine-5-carboxamide]",< 2000 nM
4,"CC(C)CC(CNC(=O)c1cccc2nc(CCl)cn12)c1ccccc1 (centres unmarked) [Compound 138, 2-(chloromethyl)-N-(4-methyl-2-phenylpentyl)imidazo[1,2-a]pyridine-5-carboxamide]",< 2000 nM
5,"O=C(NCC12CC3CC(CC(C3)C1)C2)c1cccc2nc(CN3CC[C@@H](N(CCO)CCO)C3)cn12 [Compound 197, N-(adamantan-1-ylmethyl)-2-({(3R)-3-[bis(2-hydroxy-ethyl)amino]pyrrolidin-1-yl}methyl)imidazo[1,2-a]pyridine-5-carboxamide]",< 2000 nM
6,"CCCN(C)C(=O)Cc1cn2c(C(=O)NCC34CC5CC(CC(C5)C3)C4)cccc2n1 [Compound 186, N-(adamantan-1-ylmethyl)-2-{2-[methyl(propyl)amino]-2-oxoethyl}imidazo[1,2-a]pyridine-5-carboxamide]",< 2000 nM
7,"O=C(NCC12CC3CC(CC(C3)C1)C2)c1cccc2nc(CCNC3CCNCC3)cn12 [Compound 119, 2-[2-(piperidin-4-ylamino)-ethyl]-imidazo[1,2-a]pyridine-5-carboxylic acid (adamantan-1-ylmethyl)-amide]",< 2000 nM
8,"CC(=O)N1CCN(C(=O)Cc2cn3c(C(=O)NCC45CC6CC(CC(C6)C4)C5)cccc3n2)CC1 [Compound 166, 2-[2-(4-acetylpiperazin-1-yl)-2-oxoethyl]-N-(adamantan-1-ylmethyl)imidazo[1,2-a]pyridine-5-carboxamide]",< 2000 nM
9,"CS(=O)(=O)C1CCN(C(=O)c2cn3c(C(=O)NCC45CC6CC(CC(C6)C4)C5)cccc3n2)CC1 [Compound 96, N-(adamantan-1-ylmethyl)-2-{[4-(methyl-sulfonyl)piperidin-1-yl]carbonyl}imidazo[1,2-a]pyridine-5-carboxamide]",< 2000 nM

# Same assay, conditions: fluorescence response of cells exposed to 80 μM 2′(3′)-O-(4-benzoyl-benzoyl)adenosine 5′-triphosphate; Example 4A; read-out: IC50
row,SMILES,IC50
1,"CNC1CCN(C(=O)c2cn3c(C(=O)NC[C@@H]4CC[C@H]5C[C@@H]4C5(C)C)cccc3n2)C1 (stereo partly drawn) [Compound 313, N-{[(1S,2R,5S)-6,6-dimethylbicyclo[3.1.1]hept-2-yl]methyl}-2-{[3-(methylamino)pyrrolidin-1-yl]carbonyl}imidazo[1,2-a]pyridine-5-carboxamide]",< 2000 nM
2,"N#Cc1ccc(-c2cn3c(C(=O)NCC45CC6CC(CC(C6)C4)C5)cccc3n2)cc1 [Compound 298, N-(adamantan-1-ylmethyl)-2-(4-cyanophenyl)imidazo [1,2-a]pyridine-5-carboxamide]",< 2000 nM
3,"O=C(NCC12CC3CC(CC(C3)C1)C2)c1cccc2nc(CCc3nnn[nH]3)cn12 [Compound 292, N-(adamantan-1-ylmethyl)-2-(2-(1H-tetrazol-5-yl)ethyl]imidazo[1,2-a]pyridine-5-carboxamide]",< 2000 nM
4,"NCCSCc1cn2c(C(=O)NCC34CC5CC(CC(C5)C3)C4)cccc2n1 [Compound 266, N-(adamantan-1-ylmethyl)-2-{[(2-aminoethyl)thio]methyl}imidazo[1,2-a]pyridine-5-carboxamide]",< 2000 nM
5,"O=C(NCC12CC3CC(CC(C3)C1)C2)c1cccc2nc(CN3CC[C@@H](F)C3)cn12 [Compound 294, N-(adamantan-1-ylmethyl)-2-[(3-fluoropyrrolidin-1-yl)methyl]imidazo[1,2-a]pyridine-5-carboxamide]",< 2000 nM
